# Laboratory results: US9657071B2, “IgE peptide vaccine” (NIPPON ZENYAKU KOGYO CO., LTD., priority 2012, dated 2017)
# What was measured:
# human IgE = experiment: Test using dog (Part 1): IgG antibody against human IgE (ELISA); format: in vivo; settings: healthy beagles 8 months old, s.c. 1 mg five times at 2-week intervals, no adjuvant
# Experimental: The peptide (M4-7-11) was concentration-adjusted to 2 mg/mL with saline, dispensed in an amount of 500 μL, and used as a vaccine. […] The vaccine administration method was subcutaneous administration of 1 mg per dose, which was performed five times at 2-week intervals. Another purpose of this test was to study the frequency of administration of the vaccine.
# Dog: 4 healthy beagles (8 months old; 2 males and 2 females) were used.
# Vaccine: the M4-7-11 peptide was used alone without being conjugated.
# Administration method: 1 mg (500 μl, of 2 mg/mL) per dose was subcutaneously administered five times at 2-week intervals.
# Evaluation: serum was collected approximately once per week, and an IgG antibody against human IgE was assayed by ELISA. Since dog IgE nonspecifically reacts with an anti-dog IgG antibody, human IgE having no nonspecific reaction was used in ELISA.
# Human IgE (Athens Research And Technology, Inc.; IgE, human Myeloma Plasma) was prepared at 1 μg/mL in an immobilization buffer (0.05 M carbonate buffer, pH 9.6), then added at a concentration of 100 μL/well to an ELISA plate, and left overnight at 4° C. The immobilization plate was washed once with PBS-T (0.05%). […] Then, the measurement was performed using a plate reader (Bio-Rad Laboratories, Inc.; model 680) (dual: measurement: 450 nm, control: 570 nm). […]
# [1] = tested on: Dog subjected to P-K test; experiment: Prausnitz-Kustner (P-K) test; format: in vivo; settings: conclusion of P-K test
# Experimental: The P-K test refers to a method for qualitatively evaluating antigen-specific IgE in test serum and employs additional antigen-unsensitized individuals. The test is summarized as follows:
# 1) Antigen-unsensitized animals are prepared as animals subjected to the P-K test.
# 2) Test serum or serum of a healthy animal (control) is intracutaneously administered to the animals subjected to the P-K test. When antigen-specific IgE is present in the test serum, the IgE binds to the surface of mast cells in the skins of the animals subjected to the P-K test within 48 hours after the administration.
# 3) 48 hours after the serum administration, an antigen solution is intracutaneously administered to the same sites as above. When antigen-specific IgE is present in the test serum, the antigen binds to the antigen-specific IgE bound with the surface of mast cells to form IgE cross-linking. This triggers the degranulation of the mast cells, resulting in flare confirmed in the skins.
# The administration group and the non-administration group differed most largely in their serum Der f 2-specific IgE concentrations at day 77 (7 days after the second sensitization) when the effects of the test substance were thus confirmed to be maximized. […]
Sequence,level of the IgG antibody against IgE (human IgE),level of the IgG antibody against IgE (human IgE; listed as M4-11-17),effect of vaccine-induced IgG on binding of IgE to mast cells [1]
KKTSVSASQWYTKHHNNATT (listed as Mus musculus) [M4-7-11],confirmed to elevate,a rise in the level of the IgG antibody against IgE,
QEKKTSVSASQWYTKHHNNATTSIT (listed as Mus musculus) [MOUSE CH3-4-17-11],,,blocks the binding of the IgE to mast cells
